Test system: 817829-284-R-J1-PDC complex spheroids, viability
Experiment: Anticancer human tumor 817829-284-R-J1-PDC patient-derived colon adenocarcinoma cell line growth inhibition [CLK]
Details: for IC50: curve of first compound; for viability, T/C: stronger effect = lower value
How it was run: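 Multi-cell-type spheroids combined patient-derived tumor cells with HUVEC endothelial cells and human mesenchymal stem cells. Paired agents were dosed in half-log steps down from about clinical Cmax, or from 10 microM where Cmax was unknown.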

[1] = second compound 0.0316 µM, first compound 0.0316 µM
[2] = second compound 0.0316 µM, first compound 0.1 µM
[3] = second compound 0.1 µM, first compound 0.0316 µM
[4] = second compound 0.1 µM, first compound 0.1 µM
[5] = second compound 0.316 µM, first compound 0.0316 µM
[6] = second compound 0.316 µM, first compound 0.1 µM
[7] = second compound 1 µM, first compound 0.0316 µM
[8] = second compound 1 µM, first compound 0.1 µM
[9] = second compound 3.16 µM, first compound 0.0316 µM
[10] = second compound 3.16 µM, first compound 0.1 µM
[11] = second compound 10 µM, first compound 0.0316 µM
[12] = second compound 10 µM, first compound 0.1 µM
[13] = second compound 0.0316 µM, first compound 0.316 µM
[14] = second compound 0.0316 µM, first compound 1 µM
[15] = second compound 0.0316 µM, first compound 3.16 µM
[16] = second compound 0.0316 µM, first compound 10 µM
[17] = second compound 0.1 µM, first compound 0.316 µM
[18] = second compound 0.1 µM, first compound 1 µM
[19] = second compound 0.1 µM, first compound 3.16 µM
[20] = second compound 0.1 µM, first compound 10 µM
[21] = second compound 0.316 µM, first compound 0.316 µM
[22] = second compound 0.316 µM, first compound 1 µM
[23] = second compound 0.316 µM, first compound 3.16 µM
[24] = second compound 0.316 µM, first compound 10 µM
[25] = second compound 1 µM, first compound 0.316 µM
[26] = second compound 1 µM, first compound 1 µM
[27] = second compound 1 µM, first compound 3.16 µM
[28] = second compound 1 µM, first compound 10 µM
[29] = second compound 3.16 µM, first compound 0.316 µM
[30] = second compound 3.16 µM, first compound 1 µM
[31] = second compound 3.16 µM, first compound 3.16 µM
[32] = second compound 3.16 µM, first compound 10 µM
[33] = second compound 10 µM, first compound 0.316 µM
[34] = second compound 10 µM, first compound 1 µM
[35] = second compound 10 µM, first compound 3.16 µM
[36] = second compound 10 µM, first compound 10 µM
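Also: spheroids exposed to the agents for seven days before readout.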

Cn1ncnc1[C@H]1c2n[nH]c(=O)c3cc(F)cc(c23)N[C@@H]1c1ccc(F)cc1 + CN1CCN(c2cc(C(=O)Nc3cc4cc(-c5cnn(C)c5)ccc4cn3)ccn2)CC1
IC50 (second compound 0.0316 µM): 2.58 nM | IC50 (second compound 0.1 µM): < 0.316 nM | IC50 (second compound 0.316 µM): < 0.316 nM | IC50 (second compound 1 µM): < 0.316 nM | IC50 (second compound 3.16 µM): < 0.316 nM | IC50 (second compound 10 µM): < 0.316 nM | viability, T/C (second compound 0.0316 µM, first compound 0.000316 µM): 60.1% | viability, T/C (second compound 0.0316 µM, first compound 0.001 µM): 54.6% | viability, T/C (second compound 0.0316 µM, first compound 0.00316 µM): 47.3% | viability, T/C (second compound 0.0316 µM, first compound 0.01 µM): 43.5% | viability, T/C [1]: 32.6% | viability, T/C [2]: 24.1% | viability, T/C (second compound 0.1 µM, first compound 0.000316 µM): 13.6% | viability, T/C (second compound 0.1 µM, first compound 0.001 µM): 14% | viability, T/C (second compound 0.1 µM, first compound 0.00316 µM): 15.3% | viability, T/C (second compound 0.1 µM, first compound 0.01 µM): 14% | viability, T/C [3]: 15.8% | viability, T/C [4]: 14.7% | viability, T/C (second compound 0.316 µM, first compound 0.000316 µM): 1.91% | viability, T/C (second compound 0.316 µM, first compound 0.001 µM): 2.09% | viability, T/C (second compound 0.316 µM, first compound 0.00316 µM): 2.16% | viability, T/C (second compound 0.316 µM, first compound 0.01 µM): 1.96% | viability, T/C [5]: 1.91% | viability, T/C [6]: 1.89% | viability, T/C (second compound 1 µM, first compound 0.000316 µM): 0.11% | viability, T/C (second compound 1 µM, first compound 0.001 µM): 0.08% | viability, T/C (second compound 1 µM, first compound 0.00316 µM): 0.09% | viability, T/C (second compound 1 µM, first compound 0.01 µM): 0.09% | viability, T/C [7]: 0.08% | viability, T/C [8]: 0.09% | viability, T/C (second compound 3.16 µM, first compound 0.000316 µM): 0.1% | viability, T/C (second compound 3.16 µM, first compound 0.001 µM): 0.11% | viability, T/C (second compound 3.16 µM, first compound 0.00316 µM): 0.14% | viability, T/C (second compound 3.16 µM, first compound 0.01 µM): 0.1% | viability, T/C [9]: 0.15% | viability, T/C [10]: 0.11% | viability, T/C (second compound 10 µM, first compound 0.000316 µM): 0.04% | viability, T/C (second compound 10 µM, first compound 0.001 µM): 0.05% | viability, T/C (second compound 10 µM, first compound 0.00316 µM): 0.08% | viability, T/C (second compound 10 µM, first compound 0.01 µM): 0.06% | viability, T/C [11]: 0.07% | viability, T/C [12]: 0.09%

Nc1ccn(C2OC(CO)C(O)C2(F)F)c(=O)n1 (stereo unspecified) + CN1CCN(c2cc(C(=O)Nc3cc4cc(-c5cnn(C)c5)ccc4cn3)ccn2)CC1
IC50 (second compound 0.0316 µM): < 31.6 nM | IC50 (second compound 0.1 µM): < 31.6 nM | IC50 (second compound 0.316 µM): < 31.6 nM | IC50 (second compound 1 µM): < 31.6 nM | IC50 (second compound 3.16 µM): < 31.6 nM | IC50 (second compound 10 µM): < 31.6 nM | viability, T/C [1]: 4.65% | viability, T/C [2]: 4.62% | viability, T/C [13]: 3.63% | viability, T/C [14]: 3.9% | viability, T/C [15]: 3.03% | viability, T/C [16]: 1.88% | viability, T/C [3]: 3.65% | viability, T/C [4]: 3.83% | viability, T/C [17]: 3.7% | viability, T/C [18]: 3.47% | viability, T/C [19]: 3.1% | viability, T/C [20]: 1.72% | viability, T/C [5]: 1.66% | viability, T/C [6]: 1.94% | viability, T/C [21]: 1.74% | viability, T/C [22]: 1.53% | viability, T/C [23]: 1.54% | viability, T/C [24]: 0.9% | viability, T/C [7]: 0.14% | viability, T/C [8]: 0.08% | viability, T/C [25]: 0.09% | viability, T/C [26]: 0.07% | viability, T/C [27]: 0.14% | viability, T/C [28]: 0.07% | viability, T/C [9]: 0.11% | viability, T/C [10]: 0.14% | viability, T/C [29]: 0.17% | viability, T/C [30]: 0.09% | viability, T/C [31]: 0.11% | viability, T/C [32]: 0.09% | viability, T/C [11]: 0.05% | viability, T/C [12]: 0.09% | viability, T/C [33]: 0.09% | viability, T/C [34]: 0.09% | viability, T/C [35]: 0.11% | viability, T/C [36]: 0.11%

O=c1[nH]cc(F)c(=O)[nH]1 + CN1CCN(c2cc(C(=O)Nc3cc4cc(-c5cnn(C)c5)ccc4cn3)ccn2)CC1
IC50 (second compound 0.0316 µM): 851 nM | IC50 (second compound 0.1 µM): < 31.6 nM | IC50 (second compound 0.316 µM): < 31.6 nM | IC50 (second compound 1 µM): < 31.6 nM | IC50 (second compound 3.16 µM): < 31.6 nM | IC50 (second compound 10 µM): < 31.6 nM | viability, T/C [1]: 72.7% | viability, T/C [2]: 66.3% | viability, T/C [13]: 57.1% | viability, T/C [14]: 52.4% | viability, T/C [15]: 33.8% | viability, T/C [16]: 26.3% | viability, T/C [3]: 18.2% | viability, T/C [4]: 17.6% | viability, T/C [17]: 22.3% | viability, T/C [18]: 20.8% | viability, T/C [19]: 18.9% | viability, T/C [20]: 15.9% | viability, T/C [5]: 2.25% | viability, T/C [6]: 2.52% | viability, T/C [21]: 1.94% | viability, T/C [22]: 2.49% | viability, T/C [23]: 2.36% | viability, T/C [24]: 2.06% | viability, T/C [7]: 0.14% | viability, T/C [8]: 0.12% | viability, T/C [25]: 0.18% | viability, T/C [26]: 0.07% | viability, T/C [27]: 0.07% | viability, T/C [28]: 0.05% | viability, T/C [9]: 0.14% | viability, T/C [10]: 0.11% | viability, T/C [29]: 0.11% | viability, T/C [30]: 0.1% | viability, T/C [31]: 0.15% | viability, T/C [32]: 0.14% | viability, T/C [11]: 0.07% | viability, T/C [12]: 0.08% | viability, T/C [33]: 0.1% | viability, T/C [34]: 0.11% | viability, T/C [35]: 0.13% | viability, T/C [36]: 0.08%
